Results: the supplement of paper PMC10307832

How the values were obtained:
Experiment in all cases: relative viability (nuclei count vs DMSO), 5 days (fraction); higher = more cells survive
NCI-H2087 = system: NCI-H2087
Method in brief: (§1)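 Cells from lung cancer lines were seeded into 1536-well plates and, one day later, dosed by pin tool. Treatments were either a single drug or a fixed dose of an anchor drug with five library-drug doses (not always all listed) in √10 steps. After 5 days, nuclei were stained in a one-step fixation (final 0.05% Triton X-100, 1% formaldehyde, 1 ug/ml Hoechst) and counted on 4× images, and relative viability is the treated-to-vehicle nuclei ratio, as the median of duplicate plates.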

NCI-H1395 = system: NCI-H1395
Method in brief: as §1

NCI-H1975 = system: NCI-H1975
Method in brief: as §1

NCI-H647 = system: NCI-H647
Method in brief: as §1

NCI-H2085 = system: NCI-H2085
Method in brief: as §1

BEN = system: BEN
Method in brief: as §1

LU99A = system: LU99A
Method in brief: as §1

EPLC-272H = system: EPLC-272H
Method in brief: as §1

H3255 = system: H3255
Method in brief: as §1

HCC-827 = system: HCC-827
Method in brief: as §1

LCLC-97TM1 = system: LCLC-97TM1
Method in brief: as §1

LOU-NH91 = system: LOU-NH91
Method in brief: as §1

Oc1nc(-c2ccc(C(F)(F)F)cc2)nc2c1CSCC2 [XAV939] + Cc1cc(Nc2cc(N3CCN(C)CC3)nc(Sc3ccc(NC(=O)C4CC4)cc3)n2)n[nH]1 [Tozasertib] (partner 0.1 µM)
relative viability (NCI-H2087; first compound 0.8 µM): 0.256 | relative viability (NCI-H2087; first compound 2.53 µM): 0.181 | relative viability (NCI-H1395; first compound 0.08 µM): 0.716 | relative viability (NCI-H1395; first compound 0.253 µM): 0.651 | relative viability (NCI-H1395; first compound 0.8 µM): 0.797 | relative viability (NCI-H1395; first compound 2.53 µM): 0.632 | relative viability (NCI-H1975; first compound 0.08 µM): 0.729 | relative viability (NCI-H1975; first compound 0.253 µM): 0.736 | relative viability (NCI-H1975; first compound 0.8 µM): 0.683 | relative viability (NCI-H1975; first compound 2.53 µM): 0.514 | relative viability (NCI-H647; first compound 0.08 µM): 0.288 | relative viability (NCI-H647; first compound 0.253 µM): 0.217 | relative viability (NCI-H647; first compound 0.8 µM): 0.262 | relative viability (NCI-H647; first compound 2.53 µM): 0.146 | relative viability (NCI-H2085; first compound 0.08 µM): 0.774 | relative viability (NCI-H2085; first compound 0.253 µM): 0.856 | relative viability (NCI-H2085; first compound 0.8 µM): 0.651 | relative viability (NCI-H2085; first compound 2.53 µM): 0.688 | relative viability (BEN; first compound 0.08 µM): 0.579 | relative viability (BEN; first compound 0.253 µM): 0.451 | relative viability (BEN; first compound 0.8 µM): 0.542 | relative viability (BEN; first compound 2.53 µM): 0.444 | relative viability (LU99A; first compound 0.08 µM): 0.268 | relative viability (LU99A; first compound 0.253 µM): 0.261 | relative viability (LU99A; first compound 0.8 µM): 0.237 | relative viability (LU99A; first compound 2.53 µM): 0.284 | relative viability (EPLC-272H; first compound 0.08 µM): 0.409 | relative viability (EPLC-272H; first compound 0.253 µM): 0.287 | relative viability (EPLC-272H; first compound 0.8 µM): 0.22 | relative viability (EPLC-272H; first compound 2.53 µM): 0.255 | relative viability (H3255; first compound 0.08 µM): 0.699 | relative viability (H3255; first compound 0.253 µM): 0.597 | relative viability (H3255; first compound 0.8 µM): 0.597 | relative viability (H3255; first compound 2.53 µM): 0.544 | relative viability (HCC-827; first compound 0.08 µM): 0.423 | relative viability (HCC-827; first compound 0.253 µM): 0.387 | relative viability (HCC-827; first compound 0.8 µM): 0.414 | relative viability (HCC-827; first compound 2.53 µM): 0.384 | relative viability (LCLC-97TM1; first compound 0.08 µM): 0.344 | relative viability (LCLC-97TM1; first compound 0.253 µM): 0.238 | relative viability (LCLC-97TM1; first compound 0.8 µM): 0.186 | relative viability (LCLC-97TM1; first compound 2.53 µM): 0.352 | relative viability (LOU-NH91; first compound 0.08 µM): 0.655 | relative viability (LOU-NH91; first compound 0.253 µM): 0.663 | relative viability (LOU-NH91; first compound 0.8 µM): 0.637 | relative viability (LOU-NH91; first compound 2.53 µM): 0.695
